Reference: EP4755888A1 (ILAb Co., Ltd., priority 2023, dated 2025)
pIC50: −log10 of the molar value.

Molecular target: PD-1/PD-L1 (Homo sapiens, UniProt Q9NZQ7)
Assay: TR-FRET PD-1/PD-L1 binding inhibition at the molecular level (free proteins)
Conditions: Tag1-PD-L1 and Tag2-PD-1 proteins, twelve concentrations from 200 nM, 2 hours at room temperature, read-out: FRET assay (IC50)
Summary of the method: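 HTRF read-out at 665/620 nm after 2 h at room temperature. Detection used anti-Tag1 Eu cryptate plus anti-Tag2 XL665 antibodies. Tagged PD-L1 and PD-1 proteins were pre-mixed with compound across twelve […] 1:2 dilutions starting at 200 nM.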

PD-1/PD-L1, sequence (Q9NZQ7 19-238 limits assumed): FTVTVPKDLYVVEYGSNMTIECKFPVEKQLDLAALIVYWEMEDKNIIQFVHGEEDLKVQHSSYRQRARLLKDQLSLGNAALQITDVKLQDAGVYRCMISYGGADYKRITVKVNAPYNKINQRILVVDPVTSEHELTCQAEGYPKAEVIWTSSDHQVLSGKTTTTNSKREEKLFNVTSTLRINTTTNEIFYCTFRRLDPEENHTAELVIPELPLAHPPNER

Row | pIC50 | Compound
1 | 7.00 to 8.00 | O=C1CCC2(CN(C3CCCn4nc(C(=O)Nc5cccc(-c6cccc(Nc7nccc8cc(CN9CC[C@@H](O)C9)cnc78)c6Cl)c5Cl)cc43)C2)N1 (stereo partly drawn) [Compound 238, N-(2,2'-dichloro-3'-((3-(((R)-3-hydroxypyrrolidin-1-yl)methyl)-1,7-naphthyridin-8-yl)amino)-[1,1'-biphenyl]-3-yl)-4-(6-oxo-2,5-diazaspiro[3.4]octan-2-yl)-4,5,6,7-tetrahydropyrazolo[1,5-a]pyridine-2-carboxamide]
2 | 7.00 to 8.00 | O=C(O)CCCNC1CCCn2nc(C(=O)Nc3cccc(-c4cccc(Nc5nccc6cc(CN7CC[C@@H](O)C7)cnc56)c4Cl)c3Cl)cc21 (stereo partly drawn) [Compound 239, 4-((2-((2,2'-dichloro-3'-((3-(((R)-3-hydroxypyrrolidin-1-yl)methyl)-1,7-naphthyridin-8-yl)amino)-[1,1'-biphenyl]-3-yl)carbamoyl)-4,5,6,7-tetrahydropyrazolo[1,5-a]pyridin-4-yl)amino)butanoic acid]
3 | 7.00 to 8.00 | O=C(Nc1cccc(-c2cccc(Nc3nccc4cc(CN5CC[C@@H](O)C5)cnc34)c2Cl)c1Cl)c1cc2n(n1)CCCC2N1CCCC1=O (stereo partly drawn) [Compound 240, N-(2,2'-dichloro-3'-((3-(((R)-3-hydroxypyrrolidin-1-yl)methyl)-1,7-naphthyridin-8-yl)amino)-[1,1'-biphenyl]-3-yl)-4-(2-oxopyrrolidin-1-yl)-4,5,6,7-tetrahydropyrazolo[1,5-a]pyridine-2-carboxamide]
4 | > 8.00 | CC(=O)NCCN[C@H]1CCCn2nc(C(=O)Nc3cccc(-c4cccc(NC(=O)c5ccc(CNCCO)cn5)c4Cl)c3Cl)cc21 [Compound 241, (S)-4-((2-acetamidoethyl)amino)-N-(2,2'-dichloro-3'-(5-(((2-hydroxyethyl)amino)methyl)picolinamido)-[1,1'-biphenyl]-3-yl)-4,5,6,7-tetrahydropyrazolo[1,5-a]pyridine-2-carboxamide]
5 | > 8.00 | CC(=O)NCCN[C@@H]1CCCn2nc(C(=O)Nc3cccc(-c4cccc(NC(=O)c5ccc(CNCCO)cn5)c4Cl)c3Cl)cc21 [Compound 242, (R)-4-((2-acetamidoethyl)amino)-N-(2,2'-dichloro-3'-(5-(((2-hydroxyethyl)amino)methyl)picolinamido)-[1,1'-biphenyl]-3-yl)-4,5,6,7-tetrahydropyrazolo[1,5-a]pyridine-2-carboxamide]
6 | > 8.00 | O=C(Nc1cccc(-c2cccc(NC(=O)c3cc4n(n3)CCC[C@@H]4N3CC[C@@H](O)C3)c2Cl)c1Cl)c1ccc(CNCCO)cn1 [Compound 243, (S)-N-(2,2'-dichloro-3'-(5-(((2-hydroxyethyl)amino)methyl)picolinamido)-[1,1'-biphenyl]-3-yl)-4-((R)-3-hydroxypyrrolidin-1-yl)-4,5,6,7-tetrahydropyrazolo[1,5-a]pyridine-2-carboxamide]
7 | > 8.00 | O=C(Nc1cccc(-c2cccc(NC(=O)c3cc4n(n3)CCC[C@H]4N3CC[C@@H](O)C3)c2Cl)c1Cl)c1ccc(CNCCO)cn1 [Compound 244, (R)-N-(2,2'-dichloro-3'-(5-(((2-hydroxyethyl)amino)methyl)picolinamido)-[1,1'-biphenyl]-3-yl)-4-((R)-3-hydroxypyrrolidin-1-yl)-4,5,6,7-tetrahydropyrazolo[1,5-a]pyridine-2-carboxamide]
8 | > 8.00 | COc1cc(-c2cccc(-c3cccc(NC(=O)c4cc5n(n4)CCC[C@@H]5NCC(=O)O)c3Cl)c2Cl)cc(F)c1CNCCO [Compound 245, (S)-2-((2-((2,2'-dichloro-3"-fluoro-4"-(((2-hydroxyethyl)amino)methyl)-5"-methoxy-[1,1':3',1"-terphenyl]-3-yl)carbamoyl)-4,5,6,7-tetrahydropyrazolo[1,5-a]pyridin-4-yl)amino)acetic acid]
9 | > 8.00 | COc1cc(-c2cccc(-c3cccc(NC(=O)c4cc5n(n4)CCC[C@H]5NCC(=O)O)c3Cl)c2Cl)cc(F)c1CNCCO [Compound 246, (R)-2-((2-((2,2'-dichloro-3"-fluoro-4"-(((2-hydroxyethyl)amino)methyl)-5"-methoxy-[1,1':3',1"-terphenyl]-3-yl)carbamoyl)-4,5,6,7-tetrahydropyrazolo[1,5-a]pyridin-4-yl)amino)acetic acid]
10 | > 8.00 | COc1cc(-c2cccc(-c3cccc(NC(=O)c4cc5n(n4)CCC[C@@H]5NCC(=O)O)c3Cl)c2Cl)cc(F)c1CN1CC[C@@H](O)C1 [Compound 247, 2-(((S)-2-((2,2'-dichloro-3"-fluoro-4"-(((R)-3-hydroxypyrrolidin-1-yl)methyl)-5"-methoxy-[1,1':3',1"-terphenyl]-3-yl)carbamoyl)-4,5,6,7-tetrahydropyrazolo[1,5-a]pyridin-4-yl)amino)acetic acid]

Second part, the compound before the results:

Row | Compound | pIC50
11 | O=C(O)CNC1CCCn2nc(C(=O)Nc3cccc(-c4cccc(NC(=O)c5ncc(CN6CC[C@@H](O)C6)cc5F)c4Cl)c3Cl)cc21 (stereo partly drawn) [Compound 204, 2-((2-((2,2'-dichloro-3'-(3-fluoro-5-(((R)-3-hydroxypyrrolidin-1-yl)methyl)picolinamido)-[1,1'-biphenyl]-3-yl)carbamoyl)-4,5,6,7-tetrahydropyrazolo[1,5-a]pyridin-4-yl)amino)acetic acid] | > 8.00
12 | O=C(Nc1cccc(-c2cccc(NC(=O)c3ncc(CN4CC[C@@H](O)C4)cc3F)c2Cl)c1Cl)c1cc2n(n1)CCCC2N1CC[C@@H](C(=O)O)C1 (stereo partly drawn) [Compound 205, (3R)-1-(2-((2,2'-dichloro-3'-(3-fluoro-5-(((R)-3-hydroxypyrrolidin-1-yl)methyl)picolinamido)-[1,1'-biphenyl]-3-yl)carbamoyl)-4,5,6,7-tetrahydropyrazolo[1,5-a]pyridin-4-yl)pyrrolidine-3-carboxylic acid] | > 8.00
13 | O=C(Nc1cccc(-c2cccc(Nc3nccc4cc(CN5CC[C@@H](O)C5)cnc34)c2Cl)c1Cl)c1cc2n(n1)CCCC2N1CC[C@@H](C(=O)O)C1 (stereo partly drawn) [Compound 228, (3R)-1-(2-((2,2'-dichloro-3'-((3-(((R)-3-hydroxypyrrolidin-1-yl)methyl)-1,7-naphthyridin-8-yl)amino)-[1,1'-biphenyl]-3-yl)carbamoyl)-4,5,6,7-tetrahydropyrazolo[1,5-a]pyridin-4-yl)pyrrolidine-3-carboxylic acid] | 7.00 to 8.00
14 | O=C(Nc1cccc(-c2cccc(Nc3nccc4cc(CN5CC[C@@H](O)C5)cnc34)c2Cl)c1Cl)c1cc2n(n1)CCCC2NC(CO)CO (stereo partly drawn) [Compound 230, N-(2,2'-dichloro-3'-((3-(((R)-3-hydroxypyrrolidin-1-yl)methyl)-1,7-naphthyridin-8-yl)amino)-[1,1'-biphenyl]-3-yl)-4-((1,3-dihydroxypropan-2-yl)amino)-4,5,6,7-tetrahydropyrazolo[1,5-a]pyridine-2-carboxamide] | 7.00 to 8.00
15 | O=C(Nc1cccc(-c2cccc(Nc3nccc4cc(CN5CC[C@@H](O)C5)cnc34)c2Cl)c1Cl)c1cc2n(n1)CCCC2NC1CCOCC1 (stereo partly drawn) [Compound 231, N-(2,2'-dichloro-3'-((3-(((R)-3-hydroxypyrrolidin-1-yl)methyl)-1,7-naphthyridin-8-yl)amino)-[1,1'-biphenyl]-3-yl)-4-((tetrahydro-2H-pyran-4-yl)amino)-4,5,6,7-tetrahydropyrazolo[1,5-a]pyridine-2-carboxamide] | 7.00 to 8.00
16 | O=C(Nc1cccc(-c2cccc(Nc3nccc4cc(CN5CC[C@@H](O)C5)cnc34)c2Cl)c1Cl)c1cc2n(n1)CCCC2N1CC(O)C1 (stereo partly drawn) [Compound 232, N-(2,2'-dichloro-3'-((3-(((R)-3-hydroxypyrrolidin-1-yl)methyl)-1,7-naphthyridin-8-yl)amino)-[1,1'-biphenyl]-3-yl)-4-(3-hydroxyazetidin-1-yl)-4,5,6,7-tetrahydropyrazolo[1,5-a]pyridine-2-carboxamide] | 7.00 to 8.00
17 | O=C(Nc1cccc(-c2cccc(Nc3nccc4cc(CN5CC[C@@H](O)C5)cnc34)c2Cl)c1Cl)c1cc2n(n1)CCCC2NC1CCC(O)CC1 (stereo partly drawn) [Compound 233, N-(2,2'-dichloro-3'-((3-(((R)-3-hydroxypyrrolidin-1-yl)methyl)-1,7-naphthyridin-8-yl)amino)-[1,1'-biphenyl]-3-yl)-4-((4-hydroxycyclohexyl)amino)-4,5,6,7-tetrahydropyrazolo[1,5-a]pyridine-2-carboxamideide] | 7.00 to 8.00
18 | COCCNC1CCCn2nc(C(=O)Nc3cccc(-c4cccc(Nc5nccc6cc(CN7CC[C@@H](O)C7)cnc56)c4Cl)c3Cl)cc21 (stereo partly drawn) [Compound 234, N-(2,2'-dichloro-3'-((3-(((R)-3-hydroxypyrrolidin-1-yl)methyl)-1,7-naphthyridin-8-yl)amino)-[1,1'-biphenyl]-3-yl)-4-((2-methoxyethyl)amino)-4,5,6,7-tetrahydropyrazolo[1,5-a]pyridine-2-carboxamide] | 7.00 to 8.00
19 | CS(=O)(=O)NCCNC1CCCn2nc(C(=O)Nc3cccc(-c4cccc(Nc5nccc6cc(CN7CC[C@@H](O)C7)cnc56)c4Cl)c3Cl)cc21 (stereo partly drawn) [Compound 235, N-(2,2'-dichloro-3'-((3-(((R)-3-hydroxypyrrolidin-1-yl)methyl)-1,7-naphthyridin-8-yl)amino)-[1,1'-biphenyl]-3-yl)-4-((2-(methylsulfonamido)ethyl)amino)-4,5,6,7-tetrahydropyrazolo[1,5-a]pyridine-2-carboxamide] | 7.00 to 8.00
20 | CC(=O)N1CC2(C1)CN(C1CCCn3nc(C(=O)Nc4cccc(-c5cccc(Nc6nccc7cc(CN8CC[C@@H](O)C8)cnc67)c5Cl)c4Cl)cc31)C2 (stereo partly drawn) [Compound 236, 4-(6-acetyl-2,6-diazaspiro[3.3]heptan-2-yl)-N-(2,2'-dichloro-3'-((3-(((R)-3-hydroxypyrrolidin-1-yl)methyl)-1,7-naphthyridin-8-yl)amino)-[1,1'-biphenyl]-3-yl)-4,5,6,7-tetrahydropyrazolo[1,5-a]pyridine-2-carboxamide] | 7.00 to 8.00
21 | CC(C)(O)C1CN(C2CCCn3nc(C(=O)Nc4cccc(-c5cccc(Nc6nccc7cc(CN8CC[C@@H](O)C8)cnc67)c5Cl)c4Cl)cc32)C1 (stereo partly drawn) [Compound 237, N-(2,2'-dichloro-3'-((3-(((R)-3-hydroxypyrrolidin-1-yl)methyl)-1,7-naphthyridin-8-yl)amino)-[1,1'-biphenyl]-3-yl)-4-(3-(2-hydroxypropan-2-yl)azetidin-1-yl)-4,5,6,7-tetrahydropyrazolo[1,5-a]pyridine-2-carboxamide] | 7.00 to 8.00
